# Measurements taken from the NIST ThermoML archive (doi:10.1016/j.tca.2013.03.008).
# Where “and” joins values, the source holds several entries; their conditions need not be identical. Equal values may be shown once. ± gives the expanded uncertainty stated by the source.
# Key:
# [1] = 101 kPa, Liquid; for viscosity: Capillary tube (Ostwald / Ubbelohde) method; for mass density: Vibrating tube method
# [2] = xn = mol fraction of the nth substance listed; details: 101 kPa, Liquid; for viscosity: Capillary tube (Ostwald / Ubbelohde) method; for mass density: Vibrating tube method
SMILES,viscosity ([1]; 298.15 K) [mPa·s],mass density ([1]; 298.15 K) [kg/m3],viscosity ([1]; 308.15 K),mass density ([1]; 308.15 K) [kg/m3],viscosity ([1]; 318.15 K),mass density ([1]; 318.15 K) [kg/m3],"viscosity ([2]; 298.15 K, x1 = 1) [mPa·s]","mass density ([2]; 298.15 K, x1 = 1) [kg/m3]","viscosity ([2]; 308.15 K, x1 = 1) [mPa·s]","mass density ([2]; 308.15 K, x1 = 1) [kg/m3]","viscosity ([2]; 318.15 K, x1 = 1) [mPa·s]","mass density ([2]; 318.15 K, x1 = 1) [kg/m3]",also measured
CCC(C)O (stereo unspecified) [butan-2-ol],2.998 ± 0.031,802.62 ± 0.31,2.17 ± 0.025 mPa·s,794.13 ± 0.31,1.476 ± 0.019 mPa·s,785.22 ± 0.31,–,–,–,–,–,–,–
CCC(C)O (stereo unspecified) [butan-2-ol] + CCC(=O)CC,–,–,–,–,–,–,–,–,–,–,–,–,"viscosity ([2]; 298.15 K, x2 = 0): 2.998 ± 0.031 mPa·s; mass density ([2]; 298.15 K, x2 = 0): 802.62 ± 0.31 kg/m3; viscosity ([2]; 308.15 K, x2 = 0): 2.17 ± 0.025 mPa·s; mass density ([2]; 308.15 K, x2 = 0): 794.13 ± 0.31 kg/m3; viscosity ([2]; 318.15 K, x2 = 0): 1.476 ± 0.019 mPa·s; mass density ([2]; 318.15 K, x2 = 0): 785.22 ± 0.31 kg/m3"
CCC(C)O (stereo unspecified) [butan-2-ol] + CCOC(=O)CCl,–,–,–,–,–,–,2.998 ± 0.031,802.62 ± 0.31,2.17 ± 0.025,794.13 ± 0.31,1.476 ± 0.019,785.22 ± 0.31,–
CCOC(=O)CCl [ethyl chloroethanoate],1.095 ± 0.011,1144.11 ± 0.45,0.934 ± 0.009 mPa·s and 0.939 ± 0.009 mPa·s,1131.46 ± 0.44,0.816 ± 0.008 mPa·s and 0.815 ± 0.008 mPa·s,1118.74 ± 0.42,–,–,–,–,–,–,–
CCC(=O)CC [pentan-3-one],0.442 ± 0.005,809.38 ± 0.31,0.398 ± 0.004 mPa·s,799.55 ± 0.31,0.362 ± 0.004 mPa·s,789.63 ± 0.31,–,–,–,–,–,–,–
CCC(=O)CC [pentan-3-one] + CCOC(=O)CCl,–,–,–,–,–,–,0.442 ± 0.005,809.38 ± 0.31,0.398 ± 0.004,799.55 ± 0.31,0.362 ± 0.004,789.63 ± 0.31,–
